Results from ChEMBL document CHEMBL1833831, “In vivo anti-inflammatory and antioxidant properties of ellagitannin metabolite urolithin A” (Bioorg Med Chem Lett, 2011).
Active and inactive are the calls of the source. The calls are words filed in the database; no cut-off is given here.

What was measured:
[1] = Drug level in rat plasma at 5 mg after 6 hrs; format: ADME, cell-free
[2] = system: Plasma; test: Drug level in ICR mouse plasma assessed as free compound level after 1 hr in presence of beta-glucuronidase by HPLC-ESI-MS/MS analysis; format: ADME, cell-free
[3] = Drug level in human plasma after 6 hrs; format: ADME, cell-free
[4] = system: Mus musculus; test: Antioxidant activity against AAPH-induced lipid peroxidation in ICR mouse assessed as decrease in ORAC score in plasma at 300 mg/kg, po after 6 hr relative to control; format: functional; design: scale not given: the % may be the effect or the level left
[5] = system: Plasma; test: Drug level in ICR mouse plasma assessed as free compound level after 1 hr in presence of beta-glucuronidase by HPLC-ESI-MS/MS analysis relative to total compound level; format: ADME, cell-free
[6] = system: Plasma; test: Drug level in ICR mouse plasma assessed as free compound level after 6 hrs in presence of beta-glucuronidase by HPLC-ESI-MS/MS analysis relative to total compound level; format: ADME, cell-free
[7] = system: Mus musculus; test: Antiinflammatory activity against carrageenan-induced paw edema in ICR mouse at 300 mg/kg, po administered 1 hr before carrageenan challenge measured after 24 hrs by plethysmometer relative to control; format: functional
[8] = system: Mus musculus; test: Antioxidant activity against AAPH-induced lipid peroxidation in ICR mouse assessed as increase in ORAC score in plasma at 300 mg/kg, po after 1 hr relative to control; format: functional
[9] = system: Mus musculus; test: Antiinflammatory activity against carrageenan-induced paw edema in ICR mouse at 300 mg/kg, po administered 6 hr before carrageenan challenge measured after 3 to 24 hrs by plethysmometer; format: functional, organism-based; design: dose 300 mg/kg
[10] = system: Mus musculus; test: Antiinflammatory activity against carrageenan-induced paw edema in ICR mouse at 300 mg/kg, po administered 1 hr before carrageenan challenge measured after 3 hrs by plethysmometer relative to control; format: functional
[11] = system: Plasma; test: Drug level in ICR mouse plasma assessed as free compound level after 6 hrs in presence of beta-glucuronidase by HPLC-ESI-MS/MS analysis; format: ADME, cell-free
[12] = system: Mus musculus; test: Antiinflammatory activity against carrageenan-induced paw edema in ICR mouse at 300 mg/kg, po administered 1 hr before carrageenan challenge measured after 6 hrs by plethysmometer relative to control; format: functional
[13] = Drug level in human plasma after 0.5 hrs; format: ADME, cell-free

concentration at 6 h [1] | Cp(f) [2] | concentration at 6 h [3] | Cp(f) [5] | Cp(f) [6] | Cp(f) [11] | concentration at 0.5 h [13] | Compound | Activity [4] | Activity [7] | Activity [8] | Activity [9] | Activity [10] | Activity [12]
450 nM |  |  |  |  |  |  | O=C1O[C@H]2[C@@H]3OC(=O)c4cc(O)c(O)c(O)c4-c4c(cc(O)c(O)c4O)C(=O)OC[C@H]2O[C@@H](OC(=O)c2cc(O)c(O)c(O)c2)[C@@H]3OC(=O)c2cc(O)c(O)c3c2[C@@H]2C1=CC(=O)[C@](O)(O3)C2(O)O [GERANIIN] |  |  |  |  |  | 
 | 2.85 µM | 110 nM | 77.2% | 65.7% | 0.83 µM | 40 nM | O=c1oc2cc(O)ccc2c2ccc(O)cc12 | 118% | 34% | 142% | inactive | 35% | 26%
